Measurements as given in publication PMC9144537, “Pharmacokinetics, Prostate Distribution and Metabolic Characteristics of Four Representative Flavones after Oral Administration of the Aerial Part of Glycyrrhiza uralensis in Rats” (Molecules, 2022).
“Also recorded” adds a separate entry of the source.

Experiments:
[1] = Prostate distribution of four flavonoids after oral aerial part of G. uralensis (HPLC-MS/MS); type: in vivo, Sprague Dawley (SD) rats; conditions: rats, 0.5-8 h after oral extract 1 g/kg on day 31, n = 6
Procedure: (§1) The analysis was performed on the AB SCIEX QTRAP 5500 (USA) triple quadrupole mass spectrometer, which was performed in SRM and positive and negative ionization modes. LC separation is run on XSelect HSS T3 analytical column (2.1 × 100 mm, 2.5 μm, Waters), equipped with Exion LC AD system (AB Sciex) infinite binary pump. Acetonitrile was used as solvent A and 0.1% formic acid aqueous solution was used as solvent B and the flow rate was 0.1 mL/min. Using gradient elution, the initial condition is that 90% solvent B drops to 0% B within 17 min and maintains it for 2 min, returns to the initial […] at 19.1 min, and ends an analysis at 22 min. The temperature of the column oven is maintained at 35 °C. The sample is kept at 10 °C and the injection volume is 5 μL. The MS parameters are as follows: ESI ion source temperature is 500 °C; curtain gas: 30 psi; collision-activated dissociation (CAD) gas settings: medium, ion spray voltage: −4500 V, ion gas 1 and 2: 50 psi. The data acquisition software is AB SCIEX Analyst 1.7.1. The specific parameters are as Table 8.

[2] = Stability test of analytes in rat prostate homogenate QC samples; type: in vitro ADME; conditions: for Stability, Mean ± S.D., 24 h at room temperature, low QC / Stability, Mean ± S.D., freeze-thaw cycles, low QC: nominal puerarin 0.100, luteolin 0.200, kaempferol 2.000, pinocembrin 2.000, n = 3; for Stability, Mean ± S.D., 24 h at room temperature, medium QC / Stability, Mean ± S.D., freeze-thaw cycles, medium QC: nominal puerarin 1.000, luteolin 5.000, kaempferol 100.000, pinocembrin 50.000, n = 3; for Stability, Mean ± S.D., 24 h at room temperature, high QC / Stability, Mean ± S.D., freeze-thaw cycles, high QC: nominal puerarin 5.000, luteolin 10.000, kaempferol 200.000, pinocembrin 100.000, n = 3; for Stability, Mean ± S.D., freeze-thaw cycles, low QC / Stability, Mean ± S.D., freeze-thaw cycles, medium QC / Stability, Mean ± S.D., freeze-thaw cycles, high QC: three freeze-thaw cycles
Procedure: All of the solutions were stored at 4℃ until analysis. Stability investigation of the four components in the plasma and prostate homogenates was performed by analyzing replicates (n = 3) of the three levels of QC samples under three different conditions. Room temperature stability was assessed after the exposure of untreated QC samples at room temperature for 24 h. Freeze and thaw stability was evaluated after three freeze (−20 °C)–thaw (room temperature) cycles.

[3] = Pharmacokinetics of four flavonoids in rat plasma after oral aerial part of G. uralensis extract (HPLC-MS/MS); type: in vivo, Sprague Dawley (SD) rats; conditions: for time at which steady state was reached: 3 h after daily oral extract 1 g/kg; for AUC(0-inf) / Tmax / half-life / MRT last / MRT inf / AUC(0-t) / Cmax: Sprague Dawley; for MRT last: day 31, n = 6, read-out: MRT0–t; for MRT inf: day 31, n = 6, read-out: MRT0–∞
Procedure: For clean-up, the plasma samples (50 μL) were vortex-mixed with 10 μL of IS and 250 μL of methanol. […] At last, 5 μL of the resulting supernatant was applied to HPLC–MS/MS analysis.
as §1

primary liver cell model = test system: primary liver cell model; design: method as in Lu et al. [65]; conditions: ref Lu et al. [65]; cited from earlier work
[4] = Qualitative detection of prototype flavones and metabolites in rat plasma, prostate, urine and feces by UPLC-Q-Exactive Orbitrap-MS after oral aerial part of G. uralensis; conditions: rats, single oral 1 g/kg extract; for Distribution of protoflavones: Plasma: mixed plasma 0.25-48 h, + not defined
Procedure: Forty-eight rats were randomly divided into four groups, namely plasma (n = 6), prostate (n = 30, there were five time points, with six individuals for each time point), excretion (n = 6) and blank (n = 6). The plasma, prostate, and excretion groups were gavaged with 1 g/kg of Glycyrrhiza uralensis sample, whereas the blank group was administered 0.5% CMC-Na. Biological samples were collected after the mice were dosed once.
The tube was placed at room temperature for 1 h; then, it was centrifuged at 4 °C (10,000 rpm, 10 min). Upper plasma of different time points was separated for 50 μL and mixed and shaken well. Mixed plasma was collected at 50 μL and the plasma samples (50 μL) were vortex-mixed with 250 μL of methanol. The solution was centrifuged at 10,000 rpm for 10 min to separate the protein from the organic phase, and then the upper supernatant was collected. Then, the supernatant was transferred and evaporated to dryness under a gentle stream of nitrogen at room temperature. The residue was reconstituted in 50 µL methanol, mixed for 1 min, and centrifuged at 10,000 rpm for 10 min. At last, 20 μL of the resulting supernatant was applied to UPLC–MS/MS analysis.
UPLC-Q-Exactive Orbitrap-MS analysis was performed on a Dionex Ultimate 3000 ultra-high performance liquid system (ThermoFisher) consisting of a binary pump, a DAD detector, a column chamber, an automatic sampler and an online degasser. The sample was separated on a Waters ACQUITY UPLC HSS T3 C18 column (2.1 mm × 100 mm, 1.8 μm), with a column temperature of 30 °C, automatic sampler temperature of 10 °C, and flow rate of 0.2 mL·min^−1. The mobile phases A and B were acetonitrile with 0.1% formic acid and aqueous solution with 0.1% formic acid, respectively. […] The injection volume of the sample was 5 μL.
The MS conditions were as follows: detection mode: positive and negative ion modes; scan range: 100–1200; resolution: 70,000; sheath gas flow rate: 40; aux gas flow rate: 15; spray voltage [kV]: 3.20; capillary temp: 320 °C; aux gas heater temp: 350 °C; AGC target: 3,000,000; maximum IT (ms): 100; sheath gas: 40/45; aux gas flow: 11/10; sweep gas: 0; S-lens RF level: 55; and aux gas heater temperature: 220 °C.

[5] = oral extract 1 g/kg every day, day 31, n = 6

Compound | concentration in prostate (ranking, in words) [1] | Stability, Mean ± S.D., 24 h at room temperature, low QC [2] | Stability, Mean ± S.D., 24 h at room temperature, medium QC [2] | Stability, Mean ± S.D., 24 h at room temperature, high QC [2] | Stability, Mean ± S.D., freeze-thaw cycles, low QC [2] | Stability, Mean ± S.D., freeze-thaw cycles, medium QC [2] | Stability, Mean ± S.D., freeze-thaw cycles, high QC [2] | AUC(0-inf) [3, 5] | Tmax [3, 5] | half-life [3, 5] | MRT last ([3]; oral extract 1 g/kg every day) | MRT inf ([3]; oral extract 1 g/kg every day) | Distribution of protoflavones: Plasma [4] | AUC(0-t) [3, 5] | Cmax [3, 5] | other results
O=c1cc(-c2ccc(O)c(O)c2)oc2cc(O)cc(O)c12 [Luteolin] | kaempferol > pinocembrin > luteolin > puerarin | 0.194 ± 0.005 μg·mL^−1/μg·g^−1 | 4.963 ± 0.118 μg·mL^−1/μg·g^−1 | 9.900 ± 0.458 μg·mL^−1/μg·g^−1 | 0.213 ± 0.031 μg·mL^−1/μg·g^−1 | 4.833 ± 0.058 μg·mL^−1/μg·g^−1 | 10.433 ± 0.551 μg·mL^−1/μg·g^−1 | 51.6 ± 1.98 ng·h/mL | 0.87 ± 0.05 h | 31.1 ± 1.17 h | 20.7 ± 1.91 h | 44 ± 1.72 h | – | – | – | time at which steady state was reached [3]: 9 days; AUC0–t [3, 5]: 35.01 ± 0.81 ng·h/mL; Phase II metabolites, share of the dosage (primary liver cell model): 54%
C[C@@H]1O[C@@H](OC[C@H]2O[C@@H](Oc3c(-c4ccc(O)c(O)c4)oc4cc(O)cc(O)c4c3=O)[C@H](O)[C@@H](O)[C@@H]2O)[C@H](O)[C@H](O)[C@H]1O [Rutin] | – | – | – | – | – | – | – | – | – | – | – | – | detected | – | – | –
O=c1cc(-c2ccc(O)cc2)oc2c([C@@H]3O[C@H](CO)[C@@H](O)[C@H](O)[C@H]3O)c(O)cc(O)c12 [Vitexin] | – | – | – | – | – | – | – | – | – | – | – | – | detected | – | – | –
O=c1c(O[C@@H]2O[C@H](CO)[C@@H](O)[C@H](O)[C@H]2O)c(-c2ccc(O)cc2)oc2cc(O)cc(O)c12 [Astragalin] | – | – | – | – | – | – | – | – | – | – | – | – | detected | – | – | –
O=C1C[C@@H](c2ccccc2)Oc2cc(O)cc(O)c21 [Pinocembrin] | kaempferol > pinocembrin > luteolin > puerarin | 1.923 ± 0.076 μg·mL^−1/μg·g^−1 | 51.000 ± 3.000 μg·mL^−1/μg·g^−1 | 102.000 ± 2.646 μg·mL^−1/μg·g^−1 | 1.867 ± 0.153 μg·mL^−1/μg·g^−1 | 51.333 ± 1.528 μg·mL^−1/μg·g^−1 | 102.333 ± 2.887 μg·mL^−1/μg·g^−1 | 23.8 ± 1.29 ng·h/mL | 1.5 ± 0.05 h | 13.2 ± 0.72 h | 19.1 ± 0.82 h | 23.3 ± 0.83 h | – | 21.8 ± 0.73 ng·h/mL | 1.18 ± 0.06 ng/mL | time at which steady state was reached [3]: 5 days
O=c1c(-c2ccc(O)cc2)coc2c([C@@H]3O[C@H](CO)[C@@H](O)[C@H](O)[C@H]3O)c(O)ccc12 [Puerarin] | kaempferol > pinocembrin > luteolin > puerarin | – | 1.097 ± 0.138 μg·mL^−1/μg·g^−1 | 4.940 ± 0.056 μg·mL^−1/μg·g^−1 | 0.100 ± 0.005 μg·mL^−1/μg·g^−1 | – | 5.057 ± 0.224 μg·mL^−1/μg·g^−1 | 242 ± 2.45 ng·h/mL | 0.5 ± 0.04 h | – | 14.4 ± 1.21 h | 15.1 ± 1.71 h | detected | 238 ± 23.4 ng·h/mL | 23.8 ± 1.05 ng/mL | t1/2 [3, 5]: 6.43 ± 0.20 h; Distribution of four representative flavonoids and metabolites: Plasma ([4]; + not defined (detected)): detected
O=c1c(O[C@@H]2O[C@H](CO)[C@@H](O)[C@H](O)[C@H]2O)c(-c2ccc(O)c(O)c2)oc2cc(O)cc(O)c12 [Isoquercitrin] | – | – | – | – | – | – | – | – | – | – | – | – | detected | – | – | –
O=c1c(O)c(-c2ccc(O)cc2)oc2cc(O)cc(O)c12 [Kaempferol] | highest concentration; also recorded: kaempferol > pinocembrin > luteolin > puerarin; also recorded: particularly high | 2.000 ± 0.265 μg·mL^−1/μg·g^−1 | 99.133 ± 3.557 μg·mL^−1/μg·g^−1 | 201.667 ± 3.215 μg·mL^−1/μg·g^−1 | 1.833 ± 0.058 μg·mL^−1/μg·g^−1 | 96.667 ± 2.082 μg·mL^−1/μg·g^−1 | 202.333 ± 2.082 μg·mL^−1/μg·g^−1 | 23.8 ± 0.86 ng·h/mL | 4 ± 0.17 h | 19 ± 1.46 h | 20.1 ± 0.84 h | 31.8 ± 1.22 h | – | 18.8 ± 1.18 ng·h/mL | 1.27 ± 0.06 ng/mL | –
O=c1c(O[C@@H]2O[C@H](CO)[C@H](O)[C@H](O)[C@H]2O)c(-c2ccc(O)c(O)c2)oc2cc(O)cc(O)c12 [Hyperoside] | – | – | – | – | – | – | – | – | – | – | – | – | detected | – | – | –
COc1ccc(-c2coc3cc(O[C@@H]4O[C@H](CO)[C@@H](O)[C@H](O)[C@H]4O)ccc3c2=O)cc1 [Ononin] | – | – | – | – | – | – | – | – | – | – | – | – | detected | – | – | –
